Experimental data published in PMC4838840 (2016).

What was measured:
[1] = tested on: ADAM10 (RNA, G4) GGGGGACGGGUAGGGGCGGGAGGUAGGGG; assay: fluorescence titration; conditions: 40 mM K+; 20 mM Tris HCl pH 7.0, 25 °C, 2 μM ThT, 1:1 fit
[2] = tested on: BCL-2 (RNA) (RNA, G4) AGGGGGCCGUGGGGUGGGAGCUGGGG; assay: fluorescence titration; conditions: 40 mM K+; 20 mM Tris HCl pH 7.0, 25 °C, 2 μM ThT, 1:1 fit
[3] = tested on: ERSI (RNA, G4) GGGUAGGGGCAAAGGGGCUGGGG; assay: fluorescence titration; conditions: 40 mM K+; 20 mM Tris HCl pH 7.0, 25 °C, 2 μM ThT, 1:1 fit
[4] = tested on: TRF2 (RNA, G4) CGGGAGGGCGGGGAGGGC; assay: fluorescence titration; conditions: 40 mM K+; 20 mM Tris HCl pH 7.0, 25 °C, 2 μM ThT, 1:1 fit
[5] = tested on: ZIC1 (RNA, G4) GGGUGGGGGGGGCGGGGGAGGCCGGGG; assay: fluorescence titration; conditions: 40 mM K+; 20 mM Tris HCl pH 7.0, 25 °C, 2 μM ThT, 1:1 fit
[6] = tested on: VEGF (RNA, G4) GGAGGAGGGGGAGGAGGA; assay: fluorescence titration; conditions: 40 mM K+; 20 mM Tris HCl pH 7.0, 25 °C, 2 μM ThT, 1:1 fit
[7] = tested on: C9orf72 (RNA) (RNA, G4) GGGGCCGGGGCCGGGGCCGGGGCC; assay: fluorescence titration; conditions: 40 mM K+; 20 mM Tris HCl pH 7.0, 25 °C, 2 μM ThT, 1:1 fit
[8] = tested on: ssAf20 (RNA) (RNA, single strand) CAAUUGUAUAUAUUCG; assay: fluorescence titration; conditions: 40 mM K+; 20 mM Tris HCl pH 7.0, 25 °C, 2 μM ThT, 1:1 fit
[9] = tested on: ssAf22 (RNA, single strand) UGAGCUUAAUUGUAUAUAUUCG; assay: fluorescence titration; conditions: 40 mM K+; 20 mM Tris HCl pH 7.0, 25 °C, 2 μM ThT, 1:1 fit
[10] = tested on: HP18 (RNA) (RNA, hairpin) CAGUACAGAUCUGUACUG; assay: fluorescence titration; conditions: 40 mM K+; 20 mM Tris HCl pH 7.0, 25 °C, 2 μM ThT, 1:1 fit
[11] = tested on: dsAf16 (RNA) (RNA, duplex) CUUAAUUGUAUAUAUUCGCGAAUAUAUACAAUUAAG; assay: fluorescence titration; conditions: 40 mM K+; 20 mM Tris HCl pH 7.0, 25 °C, 2 μM ThT, 1:1 fit
[12] = tested on: Tel22 (RNA) (RNA, G4) AGGGUUAGGGUUAGGGUUAGGG; assay: fluorescence enhancement; conditions: 40 mM K+; 20 mM Tris HCl pH 7.0, 2 μM ThT, 4 μM RNA; F/F0 440-fold
[13] = tested on: Tel22 (DNA) (DNA, G4) AGGGTTAGGGTTAGGGTTAGGG; assay: fluorescence enhancement; conditions: 40 mM K+; 20 mM Tris HCl pH 7.0; F/F0 1339-fold
[14] = tested on: BCL-2 (DNA) (DNA, G4) AGGGGGCCGTGGGGTGGGAGCTGGGG; assay: fluorescence enhancement; conditions: 40 mM K+; 20 mM Tris HCl pH 7.0; F/F0 458-fold
[15] = tested on: C9orf72 (DNA) (DNA, G4) GGGGCCGGGGCCGGGGCCGGGGCC; assay: fluorescence enhancement; conditions: 40 mM K+; 20 mM Tris HCl pH 7.0; F/F0 252-fold
[16] = tested on: ssAf20 (DNA) (DNA, single strand) CAATTGTATATATTCG; assay: fluorescence enhancement; conditions: 40 mM K+; 20 mM Tris HCl pH 7.0; F/F0 59-fold
[17] = tested on: HP18 (DNA) (DNA, hairpin) CAGTACAGATCTGTACTG; assay: fluorescence enhancement; conditions: 40 mM K+; 20 mM Tris HCl pH 7.0; F/F0 36-fold
[18] = tested on: dsAf16 (DNA) (DNA, duplex) CTTAATTGTATATATTCGCGAATATATACAATTAAG; assay: fluorescence enhancement; conditions: 40 mM K+; 20 mM Tris HCl pH 7.0; F/F0 65-fold
[19] = tested on: Spinach (RNA, aptamer) GCAGCCGGCUUGUUGAGUAGAGUGUGAGCUCCGUAACUGGUCGCGUC/GACGCGACCGAAUGAAAUGGUGAAGGACGGGUCCAGCCGGCUGC; assay: fluorescence enhancement; conditions: 40 mM K+; 20 mM Tris HCl pH 7.0, 2 μM ThT, 4 μM RNA; F/F0 487-fold
[20] = tested on: Bulges-TB1 (RNA, G4) UUGUGGUGGGUGGGUGGGU; assay: fluorescence enhancement; conditions: 40 mM K+; 20 mM Tris HCl pH 7.0, 2 μM ThT, 4 μM RNA; F/F0 196-fold
[21] = tested on: tRNA-Ala fragment (RNA, G4) GGGGGUGUAGCUCAGUGGUAGAGCGCGUGC; assay: fluorescence enhancement; conditions: 40 mM K+; 20 mM Tris HCl pH 7.0, 2 μM ThT, 4 μM RNA; F/F0 88-fold
[22] = tested on: tRNA-Cys fragment (RNA, G4) GGGGGUAUAGCUCAGUGGUAGAGCAUUUGA; assay: fluorescence enhancement; conditions: 40 mM K+; 20 mM Tris HCl pH 7.0, 2 μM ThT, 4 μM RNA; F/F0 57-fold

K [1]: (2.60 ± 0.12) × 10^5 M^-1
K [2]: (2.93 ± 0.27) × 10^5 M^-1
K [3]: (2.03 ± 0.12) × 10^5 M^-1
K [4]: (0.62 ± 0.61) × 10^5 M^-1
K [5]: (0.56 ± 0.22) × 10^5 M^-1
K [6]: (1.24 ± 0.15) × 10^5 M^-1
K [7]: (1.92 ± 0.05) × 10^5 M^-1
K [8]: (9.37 ± 1.28) × 10^4 M^-1
K [9]: (5.53 ± 1.59) × 10^4 M^-1
K [10]: (5.62 ± 1.94) × 10^4 M^-1
K [11]: (1.43 ± 1.01) × 10^5 M^-1
binding [12]: yes
binding [13]: yes
binding [14]: yes
binding [15]: yes
binding [16]: yes
binding [17]: yes
binding [18]: yes
binding [19]: yes
binding [20]: yes
binding [21]: yes
binding [22]: yes
SMILES: Cc1ccc2c(c1)sc(-c1ccc(N(C)C)cc1)[n+]2C
